Structures can show the parent of a compound that is named as a salt.

The assay concerns T1, A. placomyces laccase.
T1 construct: gene EC 1.10.3.2; native, purified from fruiting bodies; 68 kDa monomer
The assay is described as follows: spectrophotometric oxidation assay, Lineweaver-Burk plot. In kind it is biochemical, Agaricus placomyces. Conditions: 50 mM sodium acetate, pH 5.2, 30°C.

On to `CCn1c(=NN=c2sc3cc(S(=O)(=O)O)ccc3n2CC)sc2cc(S(=O)(=O)O)ccc21` [ABTS, 2,7′-azinobis[3-ethylbenzothiazolone-6-sulfonic acid] diammonium salt], for which the Km came to 775 µM. The same measure for `Oc1ccc(O)cc1` [hydroquinone]: 392 µM.

These data come from PMC3471028, “A Laccase with Antiproliferative and HIV-I Reverse Transcriptase Inhibitory Activities from the Mycorrhizal Fungus Agaricus placomyces” (Journal of Biomedicine and Biotechnology, 2012).
